# Measurements published in US10183015B2, “Heterocyclic compounds and methods of use” (Medivation Technologies LLC, priority 2015, dated 2019).
# “And” between values parts separate entries of the source, which are not always exact repeats. Equal values may be shown once.
# Legend:
# ob/ob mice = test: ob/ob mice: liver Oil Red O staining; format: in vivo, mouse; conditions: 8 weeks
# Procedure: Groups of mice were either untreated (group 1) or treated for 8 weeks with vehicle (group 2), or with Compound #37 at 5 mg/kg (group 3), 10 mg/kg (group 4), or 20 mg/kg (group 5). Treatment was daily by oral gavage in vehicle (20% HPβCD). Values are presented as mean±standard error of the mean (sem). A t test was performed to compare the untreated group and the vehicle group. Then Compound #37-treated groups were compared to the vehicle-treated group with a 1-way ANOVA+Dunnett's post-test. […] For each test, a p<0.05 was considered significant. Of note, animal #39, group 1 was excluded from the statistical analysis, due to low values for all parameters measured. Some other values were considered as out-liners and excluded from the statistical analysis when the value was far below the mean minus 2 SD. Excluded values are marked with an asterisk in Tables 21-23.
# leptin = test: DIN mouse model: plasma leptin; format: in vivo; conditions: for plasma leptin day 70: day 70, 20 mg/kg
# Procedure: Male C57Bl/6J mice (8 weeks old) were housed in enriched ventilated cages (31×12.5×12.7 cm) throughout the experimental phase. Animals' cages litters were changed at least once a week. Animal were housed 5 per cage on inverted 12-hour light cycle (at 09:00 am lights off), 22±2° C. and 55±10% relative humidity. The acclimation period was 20 days. During the acclimation period, all mice were fed a standard diet (RM1 (E) 801492, SDS) and tap water ad libitum. After the acclimation period, mice were fed with the DIN diet (60% fat, cholesterol enriched) and fructose-enriched tap water ad libitum until the end of the experiment.
# At 6 weeks of diet, mice were 4-hour fasted (09:00 am to 1:00 pm) and blood (150 μl/EDTA) was collected at 01:00 pm by retro-orbital bleeding under isoflurane anesthesia. Mice were then allocated in 2 homogenous groups (n=12/group) according to their plasma levels of ALT (average levels: 685U/L), AST (average levels: 627U/L) and HOMA-IR index (average value: 4.7), into 2 homogenous groups (see values at day 0 in Tables 15A and 15B ALT/AST and Tables 16A and 16B for HOMA-IR). Mice were then treated once daily by oral gavage with vehicle (Group 1) or Compound #37 at 20 mg/kg (Group 2) for 70 days.
# To investigate whether Compound #37 improves pre-existing steatosis/NASH pathology, a study was conducted using a 16-week diet-induced NASH mouse model. In this model, mice develop steatosis that progresses with inflammation and fibrosis that mimic many of the observed pathologies in human nonalcoholic fatty liver disease (NAFLD) and NASH (Hebbard & George, 2010). For 6 weeks, mice were fed a high-fat, high-cholesterol diet and provided drinking water containing fructose to induce liver pathology (Charlton et al, 2011). […]
# LDLR = test: Short-term Paigen-diet NASH mouse model: hepatic LDLR gene expression (RT-qPCR); format: in vivo; conditions: liver; for DDct: LDLR Dct relative to vehicle mean; for Dct: LDLR minus 18S; for 2DDct: LDLR relative expression to vehicle group, normalized to 18S; for LDLR: raw RT-qPCR value
# Procedure: (§1) To investigate whether Compound #37 prevents the development of pathology associated with NASH and steatosis in an acute exploratory disease model, a study was conducted using a diet-induced acute liver steatosis model in mice. As described below, in this study, C57BL/6J mice were initiated on the Paigen diet and simultaneously treated with Compound #37 (5, 20, and 40 mg/kg/day) or vehicle control (20% HPβCD 10 mL/kg/day) by oral gavage for 21 days.
# (§2) After acclimation, 8-week old male C57Bl/6J mice (Charles River) weighing about 25 g were randomized in 4 groups according their body weight and treated once daily around noon by oral gavage with vehicle, or Compound #37 at various for 21 days as follows: Group 1: vehicle-20% (2-hydroxypropyl)-β-cyclodextrin (HP-β-CD) (n=10); Group 2: Compound #37, 5 mg/kg (n=10) Group 3: Compound #37, 20 mg/kg (n=10) Group 4: Compound #37, 40 mg/kg (n=10). During the treatment period, body weight and food intake (measured over 24h) were measured 3 times per week and once a week, respectively. During the acclimation, all mice were fed a standard diet (Special Diets Services RM1 (E), product no. 801492) and tap water ad libitum. After the acclimation period, mice were fed until the end of the experiment with a 60% high fat Paigen diet (60 kcal % fat, 1.25% cholesterol, and 0.5% cholate; D11061901, Research Diet) and tap water ad libitum.
# (§3) Gene expression analysis. Hepatic expression levels of genes involved in lipid metabolism (FAS, SREBP1, ACC1, SCD1), cholesterol metabolism (HMG-CoAR, LDLR), SREBP proteolysis (SCAP, INSIG1), ER stress (PERK), oxidative stress (NRF2), inflammation (MCP-1), and fibrosis (collagen 1α1) were quantified by RTqPCR. Expression level was normalized to 18S gene expression and relative expression to vehicle group was calculated with the […] method.
# HMGCoA = test: Short-term Paigen-diet NASH mouse model: hepatic HMGCoA (HMG-CoAR) gene expression (RT-qPCR); format: in vivo; conditions: liver; for DDct: HMGCoA Dct relative to vehicle mean; for Dct: HMGCoA minus 18S; for 2DDct: HMGCoA relative expression to vehicle group, normalized to 18S; for HMGCoA: raw RT-qPCR value
# Procedure: as §1, §2, §3
# [1] = Compound #37 5 mg/kg, group mean, n=10
# [2] = Compound #37 5 mg/kg, individual animals, 5 mg/kg
# [3] = Compound #37 20 mg/kg, group mean, n=6
# [4] = Compound #37 20 mg/kg, individual animals, 20 mg/kg
smiles,measurement,setting,value
"CC(C)Cc1cc(-c2nc(-c3ccc(NS(=O)(=O)C(F)(F)F)cc3Cl)cs2)ccn1 [Compound 37, N-(3-chloro-4-(2-(2-isobutylpyridin-4-yl)thiazol-4-yl)phenyl)-1,1,1-trifluoromethanesulfonamide]",liver oil-red-O quantification,"ob/ob mice; 5 mg/kg daily oral gavage, group mean",6.7%
same,liver oil-red-O quantification,"ob/ob mice; 5 mg/kg daily oral gavage, individual animal values, 5 mg/kg",0.67% and 2.91% and 8.82% and 9.22% and 4.41% and 6.15% and 8.06% and 8.93% and 8.85% and 9.33%
same,liver oil-red-O quantification,"ob/ob mice; 10 mg/kg daily oral gavage, group mean",13.23%
same,liver oil-red-O quantification,"ob/ob mice; 10 mg/kg daily oral gavage, individual animal values, 10 mg/kg",19.18% and 18.46% and 13.25% and 3.65% and 8.46% and 8.67% and 16.07% and 17.12% and 16.00% and 11.43%
same,liver oil-red-O quantification,"ob/ob mice; 20 mg/kg daily oral gavage, group mean",8.5%
same,liver oil-red-O quantification,"ob/ob mice; 20 mg/kg daily oral gavage, individual animal values, 20 mg/kg",13.45% and 0.42% and 15.53% and 9.89% and 4.95% and 8.17% and 4.74% and 7.06% and 15.71% and 5.38%
same,plasma leptin reduction,"leptin; 20 mg/kg, end of the treatment period, vs. vehicle",38%
same,plasma leptin day 70,"leptin; group mean, n 11",265 pg/mL
same,plasma leptin day 70,leptin; individual animals,454 pg/mL and 330 pg/mL and 202 pg/mL and 280 pg/mL and 341 pg/mL and 144 pg/mL and 294 pg/mL and 46 pg/mL and 269 pg/mL and 374 pg/mL and 187 pg/mL
same,DDct,LDLR; [1],0.18
same,DDct,LDLR; [2],−0.92 and 0.13 and −0.60 and −0.98 and 1.46 and 1.39 and 0.04 and 0.33 and 0.52 and 0.37
same,DDct,LDLR; [3],−0.09
same,DDct,LDLR; [4],0.38 and 0.91 and 0.32 and −1.22 and 0.42 and −1.37
same,Dct,LDLR; [1],12.8
same,Dct,LDLR; [2],11.74 and 12.79 and 12.06 and 11.68 and 14.12 and 14.05 and 12.7 and 12.99 and 13.18 and 13.03
same,Dct,LDLR; [3],12.6
same,Dct,LDLR; [4],13.04 and 13.57 and 12.98 and 11.44 and 13.08 and 11.29
same,2DDct,LDLR; [1],1.03
same,2DDct,LDLR; [2],1.89 and 0.91 and 1.51 and 1.97 and 0.36 and 0.38 and 0.97 and 0.79 and 0.70 and 0.77
same,2DDct,LDLR; [3],1.29
same,2DDct,LDLR; [4],0.77 and 0.53 and 0.80 and 2.33 and 0.75 and 2.58
same,LDLR,LDLR; [1],25.1
same,LDLR,LDLR; [2],25.2 and 25.9 and 23.67 and 25.03 and 26.15 and 27.4 and 24.3 and 24.78 and 24.32 and 24.15
same,LDLR,LDLR; [3],24.8
same,LDLR,LDLR; [4],25.95 and 25.86 and 25.18 and 24.47 and 24.57 and 22.55
same,DDct,HMGCoA; [1],0.21
same,DDct,HMGCoA; [2],−0.39 and 0.32 and 0.09 and −0.08 and 0.87 and 0.63 and −0.03 and 0.10 and 0.35 and 0.20
same,DDct,HMGCoA; [3],0.33
same,DDct,HMGCoA; [4],0.57 and 1.06 and 0.58 and −0.40 and 0.77 and −0.64
same,Dct,HMGCoA; [1],13.1
same,Dct,HMGCoA; [2],12.48 and 13.19 and 12.96 and 12.79 and 13.74 and 13.5 and 12.84 and 12.97 and 13.22 and 13.07
same,Dct,HMGCoA; [3],13.2
same,Dct,HMGCoA; [4],13.44 and 13.93 and 13.45 and 12.47 and 13.64 and 12.23
same,2DDct,HMGCoA; [1],0.89
same,2DDct,HMGCoA; [2],1.31 and 0.80 and 0.94 and 1.05 and 0.55 and 0.64 and 1.02 and 0.93 and 0.78 and 0.87
same,2DDct,HMGCoA; [3],0.88
same,2DDct,HMGCoA; [4],0.67 (2×) and 0.48 and 1.32 and 0.58 and 1.55
same,HMGCoA,HMGCoA; [1],25.3
same,HMGCoA,HMGCoA; [2],25.94 and 26.3 and 24.57 and 26.14 and 25.77 and 26.85 and 24.44 and 24.76 and 24.36 and 24.19
same,HMGCoA,HMGCoA; [3],25.4
same,HMGCoA,HMGCoA; [4],26.35 and 26.22 and 25.65 and 25.5 and 25.13 and 23.49
